In ChEMBL document CHEMBL3259522, “Synthesis and biological evaluation of some 2-(3,5-dimethyl-1H-pyrazol-1-yl)-1-arylethanones: antibacterial, DNA photocleavage, and anticancer activities” (2014):
In brackets after ≈: the same amount, converted by molar mass. Activity calls are given as the source filed them. The rule behind the calls is not given here.

Legend:
Staphylococcus aureus [1] = assay: Antibacterial activity against Staphylococcus aureus assessed as growth inhibition after 24 hrs by two fold serial dilution method; format: functional
HCT-116 [2] = assay: Anticancer activity against human HCT116 cells assessed as cell viability after 48 hrs by MTT assay; format: functional, cell-based
Enterococcus [3] = assay: Antibacterial activity against Enterococcus assessed as growth inhibition after 24 hrs by two fold serial dilution method; format: functional
[4] = Induction of DNA degradation in supercoiled plasmid DNA (unknown origin) by agarose gel electrophoresis in absence of UV light
Escherichia coli [5] = assay: Antibacterial activity against Escherichia coli assessed as growth inhibition after 24 hrs by two fold serial dilution method; format: functional
Escherichia coli [6] = assay: Antibacterial activity against Escherichia coli assessed as diameter of growth inhibition zone after 24 hrs by two fold serial dilution method; format: functional
[7] = Induction of DNA degradation in open circular plasmid DNA (unknown origin) by agarose gel electrophoresis in absence of UV light
Staphylococcus aureus [8] = assay: Antibacterial activity against Staphylococcus aureus assessed as diameter of growth inhibition zone after 24 hrs by two fold serial dilution method; format: functional
Enterococcus [9] = assay: Antibacterial activity against Enterococcus assessed as diameter of growth inhibition zone after 24 hrs by two fold serial dilution method; format: functional
[10] = Induction of DNA photocleavage in open circular plasmid DNA (unknown origin) at 5 ug by agarose gel electrophoresis in presence of UV light
HT-29 [11] = assay: Anticancer activity against human HT-29 cells assessed as cell viability at 50 uM after 72 hrs by MTT assay; format: functional, cell-based
[12] = Induction of DNA photocleavage in open circular plasmid DNA (unknown origin) at 15 ug by agarose gel electrophoresis in presence of UV light
[13] = Induction of DNA photocleavage in open circular plasmid DNA (unknown origin) at 2.5 ug by agarose gel electrophoresis in presence of UV light
DU-145 [14] = assay: Anticancer activity against human DU145 cells assessed as cell viability at 50 uM after 72 hrs by MTT assay; format: functional, cell-based
[15] = Induction of DNA photocleavage in supercoiled plasmid DNA (unknown origin) at 1 ug by agarose gel electrophoresis in presence of UV light
[16] = Induction of DNA photocleavage in open circular plasmid DNA (unknown origin) at 1 ug by agarose gel electrophoresis in presence of UV light
HCT-116 [17] = assay: Anticancer activity against human HCT116 cells assessed as cell viability at 10 uM after 48 hrs by MTT assay; format: functional; details: HCT-116, 48 h, read-out: Activity
[18] = Induction of DNA photocleavage in supercoiled plasmid DNA (unknown origin) at 30 ug by agarose gel electrophoresis in presence of UV light
Staphylococcus aureus [19] = assay: Antibacterial activity against Staphylococcus aureus assessed as growth inhibition after 24 hrs by two fold serial dilution method relative to ampicillin; format: functional; design: scale not given: the % may be the effect or the level left
[20] = Induction of DNA photocleavage in supercoiled plasmid DNA (unknown origin) at 15 ug by agarose gel electrophoresis in presence of UV light
[21] = Induction of DNA photocleavage in supercoiled plasmid DNA (unknown origin) at 60 ug by agarose gel electrophoresis in presence of UV light
[22] = Induction of DNA photocleavage in open circular plasmid DNA (unknown origin) at 30 ug by agarose gel electrophoresis in presence of UV light
SK-OV-3 = assay: Anticancer activity against human SKOV3 cells assessed as cell viability after 72 hrs by MTT assay; format: functional, cell-based
HCT-116 [23] = assay: Anticancer activity against human HCT116 cells assessed as cell viability at 50 uM after 48 hrs by MTT assay; format: functional; details: HCT-116, 48 h, read-out: Activity
[24] = Induction of DNA photocleavage in supercoiled plasmid DNA (unknown origin) at 5 ug by agarose gel electrophoresis in presence of UV light
[25] = Induction of DNA photocleavage in open circular plasmid DNA (unknown origin) at 60 ug by agarose gel electrophoresis in presence of UV light
HCT-116 [26] = assay: Anticancer activity against human HCT116 cells assessed as cell viability at 25 uM after 48 hrs by MTT assay; format: functional; details: HCT-116, 48 h, read-out: Activity
[27] = Induction of DNA photocleavage in supercoiled plasmid DNA (unknown origin) at 2.5 ug by agarose gel electrophoresis in presence of UV light
A549 = assay: Anticancer activity against human A549 cells assessed as cell viability after 72 hrs by MTT assay; format: functional, cell-based
Pseudomonas aeruginosa [28] = assay: Antibacterial activity against Pseudomonas aeruginosa assessed as diameter of growth inhibition zone after 24 hrs by two fold serial dilution method; format: functional
Klebsiella pneumoniae [29] = assay: Antibacterial activity against Klebsiella pneumoniae assessed as growth inhibition after 24 hrs by two fold serial dilution method; format: functional
Klebsiella pneumoniae [30] = assay: Antibacterial activity against Klebsiella pneumoniae assessed as diameter of growth inhibition zone after 24 hrs by two fold serial dilution method; format: functional
Pseudomonas aeruginosa [31] = assay: Antibacterial activity against Pseudomonas aeruginosa assessed as growth inhibition after 24 hrs by two fold serial dilution method; format: functional
Escherichia coli [32] = assay: Antibacterial activity against Escherichia coli assessed as growth inhibition after 24 hrs by two fold serial dilution method relative to ampicillin; format: functional; design: scale not given: the % may be the effect or the level left
DU-145 [33] = assay: Anticancer activity against human DU145 cells assessed as cell viability after 72 hrs by MTT assay; format: functional, cell-based
Pseudomonas aeruginosa [34] = assay: Antibacterial activity against Pseudomonas aeruginosa assessed as growth inhibition after 24 hrs by two fold serial dilution method relative to ampicillin; format: functional; design: scale not given: the % may be the effect or the level left
Enterococcus [35] = assay: Antibacterial activity against Enterococcus assessed as growth inhibition after 24 hrs by two fold serial dilution method relative to ampicillin; format: functional; design: scale not given: the % may be the effect or the level left
HT-29 [36] = assay: Anticancer activity against human HT-29 cells assessed as cell viability after 72 hrs by MTT assay; format: functional, cell-based
HCT-116 [37] = assay: Anticancer activity against human HCT116 cells assessed as cell viability after 72 hrs by MTT assay; format: functional, cell-based

SMILES | MIC (Staphylococcus aureus [1]) | Activity (HCT-116 [2]) | MIC (Enterococcus [3]) | Activity [4] | MIC (Escherichia coli [5]) | diameter of the inhibition zone (DIZ) (Escherichia coli [6]) | Activity [7] | diameter of the inhibition zone (DIZ) (Staphylococcus aureus [8]) | diameter of the inhibition zone (DIZ) (Enterococcus [9]) | Activity [12] | viability at 10 µM (HCT-116 [17]) | Activity [18] | Activity [20] | Activity [21] | Activity [22] | Activity (SK-OV-3) | viability at 50 µM (HCT-116 [23]) | Activity [25] | diameter of the inhibition zone (DIZ) (Pseudomonas aeruginosa [28]) | MIC (Pseudomonas aeruginosa [31]) | also measured
Cc1ccc(C(=O)Cn2nc(C)cc2C)cc1 | 256 µg/mL (≈ 1120 µM) | inactive | 64 µg/mL (≈ 280 µM) | inactive | 512 µg/mL (≈ 2240 µM) | 11 mm | inactive | 11 mm | 15 mm | – | – | – | – | – | – | – | – | – | – | – | –
Cc1cc(C)n(CC(=O)c2cccc(Cl)c2)n1 | – | inactive | 512 µg/mL (≈ 2060 µM) | inactive | 512 µg/mL (≈ 2060 µM) | 10 mm | inactive | – | 10 mm | – | – | – | – | – | – | – | – | – | – | – | –
Cc1cc(C)n(CC(=O)c2ccc(Br)cc2)n1 | 32 µg/mL (≈ 109 µM) | – | 512 µg/mL (≈ 1750 µM) | inactive | 256 µg/mL (≈ 873 µM) | 14 mm | inactive | 14 mm | 12 mm | Active | 62.4% | Active | Active | Active | Active | inactive | 47.4% | Active | – | – | Activity [10]: Active; Activity (HT-29 [11]): inactive; Activity [13]: Active; Activity (DU-145 [14]): inactive; Activity [15]: Active; Activity [16]: Active; Activity (Staphylococcus aureus [19]): 6.25%; Activity [24]: Active; viability at 25 µM (HCT-116 [26]): 55.9%; Activity [27]: Active
Cc1cc(C)n(CC(=O)c2cccc3ccccc23)n1 | – | – | 256 µg/mL (≈ 968 µM) | inactive | – | – | inactive | – | 12 mm | – | 73.4% | – | – | Active | – | inactive | 34.6% | Active | – | – | Activity (HT-29 [11]): inactive; Activity (DU-145 [14]): inactive; Activity (A549): Active; viability at 25 µM (HCT-116 [26]): 60.8%
CC1(C)S[C@@H]2[C@H](NC(=O)[C@H](N)c3ccccc3)C(=O)N2[C@H]1C(=O)O [AMPICILLIN] | 2 µg/mL (≈ 5.72 µM) | – | 2 µg/mL (≈ 5.72 µM) | – | 8 µg/mL (≈ 22.9 µM) | 16 mm | – | 16 mm | 18 mm | – | – | – | – | – | – | – | – | – | 14 mm | 8 µg/mL (≈ 22.9 µM) | MIC (Klebsiella pneumoniae [29]): 2 µg/mL (≈ 5.72 µM); diameter of the inhibition zone (DIZ) (Klebsiella pneumoniae [30]): 13 mm
Cc1cc(C)n(CC(=O)c2ccc(Cl)cc2)n1 | 256 µg/mL (≈ 1030 µM) | inactive | 512 µg/mL (≈ 2060 µM) | inactive | 256 µg/mL (≈ 1030 µM) | 14 mm | inactive | 12 mm | 12 mm | – | – | – | – | – | – | – | – | – | – | – | –
Cc1cc(C)n(CC(=O)c2ccccc2F)n1 | 256 µg/mL (≈ 1100 µM) | inactive | 256 µg/mL (≈ 1100 µM) | inactive | 256 µg/mL (≈ 1100 µM) | 11 mm | inactive | 10 mm | 10 mm | – | – | – | – | – | – | – | – | – | 11 mm | 256 µg/mL (≈ 1100 µM) | –
Cc1cc(C)n(CC(=O)c2ccc(F)cc2F)n1 | 256 µg/mL (≈ 1020 µM) | inactive | 512 µg/mL (≈ 2050 µM) | inactive | 512 µg/mL (≈ 2050 µM) | 9 mm | inactive | 10 mm | 10 mm | inactive | – | Active | inactive | Active | Active | – | – | Active | – | – | Activity [10]: inactive; Activity [13]: inactive; Activity [15]: inactive; Activity [16]: inactive; Activity [24]: inactive; Activity [27]: inactive
Cc1cc(C)n(CC(=O)c2ccc3ccccc3c2)n1 | 8 µg/mL (≈ 30.3 µM) | – | 16 µg/mL (≈ 60.5 µM) | inactive | 16 µg/mL (≈ 60.5 µM) | 12 mm | inactive | 10 mm | 15 mm | – | 56.8% | – | – | – | – | inactive | 36.5% | – | 14 mm | 64 µg/mL (≈ 242 µM) | MIC (Klebsiella pneumoniae [29]): 64 µg/mL (≈ 242 µM); Activity (Escherichia coli [32]): 50%; Activity (DU-145 [33]): Active; Activity (Pseudomonas aeruginosa [34]): 12.5%; Activity (Enterococcus [35]): 12.5%; Activity (Staphylococcus aureus [19]): 25%; Activity (HT-29 [36]): Active; diameter of the inhibition zone (DIZ) (Klebsiella pneumoniae [30]): 11 mm; Activity (HCT-116 [37]): Active; Activity (A549): Active; viability at 25 µM (HCT-116 [26]): 52.6%
Cc1cc(C)n(CC(=O)c2ccccc2)n1 | 512 µg/mL (≈ 2390 µM) | – | 512 µg/mL (≈ 2390 µM) | inactive | 512 µg/mL (≈ 2390 µM) | 11 mm | inactive | 10 mm | 13 mm | – | 81.4% | – | – | – | – | inactive | 52.4% | – | 13 mm | 64 µg/mL (≈ 299 µM) | Activity (HT-29 [11]): inactive; MIC (Klebsiella pneumoniae [29]): 64 µg/mL (≈ 299 µM); Activity (Escherichia coli [32]): 12.5%; Activity (Pseudomonas aeruginosa [34]): 12.5%; Activity (DU-145 [14]): inactive; diameter of the inhibition zone (DIZ) (Klebsiella pneumoniae [30]): 10 mm; viability at 25 µM (HCT-116 [26]): 55.4%
Cc1cc(C)n(CC(=O)c2ccc(F)cc2)n1 | 256 µg/mL (≈ 1100 µM) | inactive | 64 µg/mL (≈ 276 µM) | inactive | 64 µg/mL (≈ 276 µM) | 15 mm | inactive | 11 mm | 15 mm | Active | – | Active | Active | Active | Active | – | – | Active | 11 mm | 256 µg/mL (≈ 1100 µM) | MIC (Klebsiella pneumoniae [29]): 256 µg/mL (≈ 1100 µM); Activity (Escherichia coli [32]): 12.5%; Activity (Pseudomonas aeruginosa [34]): 12.5%; diameter of the inhibition zone (DIZ) (Klebsiella pneumoniae [30]): 9 mm
Cc1cc(C)n(CC(=O)c2ccc([N+](=O)[O-])cc2)n1 | 128 µg/mL (≈ 494 µM) | inactive | 256 µg/mL (≈ 987 µM) | inactive | 256 µg/mL (≈ 987 µM) | 11 mm | inactive | 13 mm | 14 mm | Active | – | Active | Active | Active | Active | – | – | Active | – | – | Activity [10]: Active; Activity [13]: Active; Activity [15]: Active; Activity [16]: Active; Activity [24]: Active; Activity [27]: Active
